From patent US8758833B2, “Cosmetic composition for the treatment of acne comprising a peptide extract of Schisandra” (Laboratoires Expanscience, priority 2009, dated 2014)

Columns and labels:
[1] = system: IL-1α released by keratinocytes; assay: Assay of IL-1α released by PMA-stimulated keratinocytes (ELISA); format: cell-based
Protocol: (§1) Keratinocytes were seeded in 24-well plates in KGM2 medium. After 24 hours of incubation, the cells were pretreated with Schisandra peptides for 24 hours. Next, the cells were stimulated by adding […] PMA (phorbol 12-myristate 13-acetate, Sigma) for 24 hours.
(§2) After the treatment, the cell supernatants were collected and IL-1α and VEGF were assayed using ELISA kits (R&D Systems) according to the manufacturer's instructions.
(§3) An MTT (IL-1α) or neutral red (VEGF) test was carried out on the cell layers: OD, proportional to the quantity of living cells, is read at 570 nm (MTT) or 540 nm (red neutral).
(§4) The quantities of IL-1α and VEGF are expressed in pg/ml/OD570 and pg/ml/OD540, respectively.

VEGF in keratinocytes = assay: Assay of VEGF in PMA-stimulated keratinocytes (ELISA); format: cell-based; conditions: Positive control (PMA) alone; non-stimulated control 208.166
Protocol: as §1, §2, §3, §4

Row | Compound | release of IL-1α induced by stimulation (% vs unstimulated) ([1]; keratinocytes stimulated by PMA for 24 hours) | Average VEGF (VEGF in keratinocytes) | inhibition at 0.1 µM ([1]; Keratinocyte, pretreatment with 10^−7 M dexamethasone, keratinocytes stimulated by PMA 24 hours, read-out: inhibition of the IL-1α release induced by PMA)
1 | CCCCCCCCCCCCCC(=O)O[C@@H]1[C@@H](C)[C@@]2(O)[C@@H](C=C(CO)C[C@]3(O)C(=O)C(C)=C[C@@H]23)[C@@H]2C(C)(C)[C@]12OC(C)=O [PMA, phorbol 12-myristate 13-acetate] | +123% | 767.941 pg/mL | –
2 | C[C@@H]1C[C@H]2[C@@H]3CCC4=CC(=O)C=C[C@]4(C)[C@@]3(F)[C@@H](O)C[C@]2(C)[C@@]1(O)C(=O)CO [dexamethasone] | – | – | 100%
